Tested on: treatment-resistant pruritus associated with atopic dermatitis, high or low baseline IgE
Test: Exploratory analysis of study NCT02651714 by baseline IgE level (Example 4)
Type: in vivo, human
Parameters: Average Itch NRS / Average Itch NRS, Diff / Sleep Disturbance / Extension / Excoriations, Diff / Erythema / Skin dryness / Skin dryness, Diff / Itch / Itch, Diff / Insomnia / Insomnia, Diff / CGIC / CGIC, Diff / VRS / VRS, Diff / Average Itch VAS / Average Itch VAS, Diff / worst Itch VAS, Diff: scale not given here
Conditions: 85 mg bid; for Average Itch NRS, Diff / Average Itch VAS, Diff / CGIC, Diff / EASI, Diff / Erythema, Diff / Excoriations, Diff / Extension, Diff / Insomnia, Diff / Intensity, Diff / Itch, Diff / Lichenification, Diff / Log EASI, Diff / Objective SCORAD, Diff / Oozing/crusting, Diff / PBI, Diff / PGIC AD, Diff / PGIC ITCH, Diff / SCORAD Total, Diff / Skin dryness, Diff / Sleep Disturbance, Diff / Subjective SCORAD, Diff / VRS, Diff / Worst Itch NRS Day, Diff / Worst Itch NRS Night, Diff / Worst Itch NRS, Diff / edema/Papules, Diff / worst Itch VAS >= 30, Diff / worst Itch VAS, Diff / worst ItchVAS >= 40, Diff / EASI 75, Diff / SCORAD 50, Diff: Diff tradipitant vs placebo; for Average Itch NRS / Average Itch VAS / EASI / Log EASI / Objective SCORAD / SCORAD Total / Sleep Disturbance / Subjective SCORAD / VRS / Worst Itch NRS / Worst Itch NRS Day / Worst Itch NRS Night / worst Itch VAS: week 8, vs baseline; for worst Itch VAS >= 30 / worst ItchVAS >= 40: Fisher; for Erythema / Excoriations / Extension / Intensity / Lichenification / Oozing/crusting / Skin dryness / edema/Papules: objective SCORAD parameter; for Insomnia / Itch: subjective SCORAD parameter
Experimental: In the study described above in Example 3, an exploratory analysis is conducted to analyze Immunoglobulin E (IgE) levels and the effect of treatment with tradipitant on atopic dermatitis and pruritus. For purposes of the analysis, study participants having an IgE level greater than or equal to 100 kU/L are deemed to have a high IgE level, while study participants having an IgE level of less than 100 kU/L are deemed to have a low IgE level. The baseline mean and range SCORAD total for each of the total study population, the high IgE group, and the low IgE group are shown below in Table 5.
The mean and range of SCORAD totals shown in Table 5 illustrate that the study population spans different strata of disease severity, from mild to severe. Table 5 also illustrates the similarity in disease severity between the high IgE and low IgE groups. Table 6 (below) presents the study results of tradipitant in treatment-resistant pruritus associated with atopic dermatitis in individuals having high baseline IgE levels (IgE≥100 kU/L), while Table 7 (below) presents the study results of tradipitant in treatment-resistant pruritus associated with atopic dermatitis in individuals having low baseline IgE levels (IgE<100 kU/L). The data in Tables 6-7 represent a separation by IgE level of the data appearing in Table 4 above.
For purposes of the present analysis, individuals having an IgE level greater than or equal to 100 kU/L are considered to have high IgE levels, while individuals having an IgE level of less than 100 kU/L are considered to have low IgE levels.

[1] = high baseline IgE (≥100 kU/L), week 8
[2] = high baseline IgE (≥100 kU/L), week 8, LOCF
[3] = low baseline IgE (<100 kU/L), week 8
[4] = low baseline IgE (<100 kU/L), week 8, LOCF
[5] = high baseline IgE (≥100 kU/L), ITT, week 8
[6] = high baseline IgE (≥100 kU/L), ITT
[7] = high baseline IgE (≥100 kU/L), ITT, week 8, LOCF
[8] = low baseline IgE (<100 kU/L), ITT, week 8
[9] = low baseline IgE (<100 kU/L), ITT
[10] = low baseline IgE (<100 kU/L), ITT, week 8, LOCF

O=C(c1ccccc1Cl)c1cccnc1-c1nnn(Cc2cc(C(F)(F)F)cc(C(F)(F)F)c2)c1-c1ccncc1 [Tradipitant]
Average Itch NRS, Diff [1]: −1.6 | Average Itch VAS, Diff [1]: −14.97 | CGIC, Diff [1]: −0.96 | EASI, Diff [1]: −1.13 | Erythema, Diff [1]: −0.15 | Excoriations, Diff [1]: −0.56 | Extension, Diff [1]: −0.72 | Insomnia, Diff [1]: −1.12 | Intensity, Diff [1]: −1.75 | Itch, Diff [1]: −2.04 | Lichenification, Diff [1]: −0.27 | Log EASI, Diff [1]: −0.46 | Objective SCORAD, Diff [1]: −6.4 | Oozing/crusting, Diff [1]: −0.23 | PBI, Diff [1]: 0.67 | PGIC AD, Diff [1]: −0.91 | PGIC ITCH, Diff [1]: −0.82 | SCORAD Total, Diff [1]: −9.9 | Skin dryness, Diff [1]: −0.27 | Sleep Disturbance, Diff [1]: −1.7 | Subjective SCORAD, Diff [1]: −3.1 | VRS, Diff [1]: −0.5597 | Worst Itch NRS Day, Diff [1]: −2.06 | Worst Itch NRS Night, Diff [1]: −2.14 | Worst Itch NRS, Diff [1]: −2.1 | edema/Papules, Diff [1]: −0.39 | worst Itch VAS >= 30, Diff [1]: 36.3% | worst Itch VAS, Diff [1]: −25.7 | worst ItchVAS >= 40, Diff [1]: 28.4% | EASI 75, Diff [2]: 18.3% | SCORAD 50, Diff [2]: 36.6% | Average Itch NRS, Diff [3]: 0.4 | Average Itch VAS, Diff [3]: 6.8 | CGIC, Diff [3]: −0.3 | EASI, Diff [3]: −0.47 | Erythema, Diff [3]: −0.31 | Excoriations, Diff [3]: −0.24 | Extension, Diff [3]: −0.94 | Insomnia, Diff [3]: 0.29 | Intensity, Diff [3]: −0.99 | Itch, Diff [3]: 0.13 | Lichenification, Diff [3]: −0.03 | Log EASI, Diff [3]: −0.21 | Objective SCORAD, Diff [3]: −3.7 | Oozing/crusting, Diff [3]: −0.18 | PBI, Diff [3]: 0.5 | PGIC AD, Diff [3]: −0.6 | PGIC ITCH, Diff [3]: −0.48 | SCORAD Total, Diff [3]: −2.8 | Skin dryness, Diff [3]: −0.40 | Sleep Disturbance, Diff [3]: 0.2 | Subjective SCORAD, Diff [3]: 0.43 | VRS, Diff [3]: −0.23 | Worst Itch NRS Day, Diff [3]: 0.43 | Worst Itch NRS Night, Diff [3]: 0.08 | Worst Itch NRS, Diff [3]: 0.3 | edema/Papules, Diff [3]: 0.08 | worst Itch VAS >= 30, Diff [3]: −3.2% | worst Itch VAS, Diff [3]: −0.9 | worst ItchVAS >= 40, Diff [3]: 5.6% | EASI 75, Diff [4]: 1.8% | SCORAD 50, Diff [4]: 7.7% | CGIC [5]: 2.6 | PBI [5]: 1.7 | PGIC AD [5]: 3.0 | PGIC ITCH [5]: 2.7 | Average Itch NRS [6]: −3.4 | Average Itch VAS [6]: −41.9 | EASI [6]: −3.78 | Log EASI [6]: −0.8 | Objective SCORAD [6]: −11.7 | SCORAD Total [6]: −20.3 | Sleep Disturbance [6]: −3.5 | Subjective SCORAD [6]: −8.7 | VRS [6]: −1.529 | Worst Itch NRS [6]: −3.6 | Worst Itch NRS Day [6]: −3.7 | Worst Itch NRS Night [6]: −3.8 | worst Itch VAS [6]: −43.9 | worst Itch VAS >= 30 [5]: 57.9% | worst ItchVAS >= 40 [5]: 50.0% | EASI 75 [7]: 23.7% | SCORAD 50 (patients with at least a 50 percent reduction of SCORAD) [7]: 47.4% | SCORAD 50 (patients with at least a 50 percent reduction of SCORAD) (high baseline IgE (≥100 kU/L), ITT, week 8, LOCF, listed as tradipitant): 47% | CGIC [8]: 2.7 | PBI [8]: 1.98 | PGIC AD [8]: 2.4 | PGIC ITCH [8]: 2.3 | Average Itch NRS [9]: −2.9 | Average Itch VAS [9]: −39.3 | EASI [9]: −2.7 | Log EASI [9]: −0.67 | Objective SCORAD [9]: −13.1 | SCORAD Total [9]: −19.9 | Sleep Disturbance [9]: −3.0 | Subjective SCORAD [9]: −7.2 | VRS [9]: −1.54 | Worst Itch NRS [9]: −2.9 | Worst Itch NRS Day [9]: −2.9 | Worst Itch NRS Night [9]: −3.0 | worst Itch VAS [9]: −44 | worst Itch VAS >= 30 [8]: 55.6% | worst ItchVAS >= 40 [8]: 55.6% | EASI 75 [10]: 19.4% | SCORAD 50 [10]: 40.0% | Erythema [5]: −0.46 | Excoriations [5]: −0.80 | Extension [5]: −2.4 | Intensity [5]: −3.2 | Lichenification [5]: −0.42 | Oozing/crusting [5]: −0.53 | Skin dryness [5]: −0.62 | edema/Papules [5]: −0.62 | Erythema [8]: −0.74 | Excoriations [8]: −0.74 | Extension [8]: −1.9 | Intensity [8]: −3.6 | Lichenification [8]: −0.49 | Oozing/crusting [8]: −0.61 | Skin dryness [8]: −0.73 | edema/Papules [8]: −0.43 | treatment effect in itch and disease severity, high IgE group compared to low IgE group (regardless of IgE cutoff (50 to 300 kU/L)): consistently stronger treatment effect | Insomnia [5]: −4.0 | Itch [5]: −4.7 | Insomnia [8]: −3.2 | Itch [8]: −4.0
